Among the data in patent US20240207224A1, “MACROCYCLIC CHALCONE-AMIDE DERIVED ANTIVIRAL AGENTS” (priority 2022, published 2024) are IC50 and EC50 values, retold here.

Like-named read-outs stand apart in the source and are kept apart here. Some results are limits rather than exact numbers.

The target of assay [1] is SARS-CoV-2 Papain-like (PLpro) protease (Severe acute respiratory syndrome coronavirus 2, UniProt P0DTD1). As to the kind of experiment: biochemical.
Assay [2] deals with SARS-CoV-2 replicon. As to the kind of experiment: microbe, parasite or virus in culture. The format is cell-based.
Assay [3] deals with SARS-CoV-2 USA-WA1/2020. Description: SARS-CoV-2 Cellular Assay (Vero 76). The format is cell-based. Conditions: Severe acute respiratory syndrome coronavirus 2, Vero 76, 144 h, read-out: SARS-COV-2 BSL3 EC50. As to the method: SARS-CoV-2 Cellular Assay (Vero 76): Test compounds are serially diluted using eight half-log dilutions in test medium (MEM supplemented with 2% FBS and 50 µg/mL gentamicin). Each dilution is added to 5 wells of a 96-well plate with 80-100% confluent Vero 76 cells. Three wells of each dilution are infected with virus (SARS-CoV-2 USA-WA1/2020), and two wells remain uninfected as toxicity controls. Six wells are infected and untreated as virus controls, and six wells are uninfected and untreated as cell controls. Viruses are prepared to achieve the lowest possible multiplicity of infection (MOI˜0.002) that would yield >80% cytopathic effect (CPE) at 6 days. Plates are incubated at 37±2° C., 5% CO2. For neutral red assay, on day 6 post-infection, once untreated virus control wells reach maximum CPE, plates are stained with neutral red dye for approximately 2 hours (±15 minutes). Supernatant dye is removed, and wells are rinsed with PBS, and the incorporated dye is extracted in 50:50 Sorensen citrate buffer/ethanol for >30 minutes and the optical density is read on a spectrophotometer at 540 nm. Optical densities are converted to percent of cell controls and normalized to the virus control, then the concentration of test compound required to inhibit CPE by 50% (EC50) is calculated by regression analysis. The concentration of compound that would cause 50% cell death in the absence of virus was similarly calculated (CC50). EC50 ranges are reported as follows: A<1 µM; B 1-10 µM; C 10-50 µM; D>50 µM.

The mark [4] stands for this setting: ubiquitin-fluorophore substrate (Ub-R110), 30 min preincubation at RT, run in duplicate, read-out: PLpro IC50.
Where [5] appears, read: Severe acute respiratory syndrome coronavirus 2, Huh-7, 20 h; read-out: SARS-COV-2 replicon EC50.
Setting [6] is: Severe acute respiratory syndrome coronavirus 2, Huh-7, 20 h, read-out: SARS-COV-2 replicon EC50.

In general, IC50 refers to the point on the concentration scale where inhibition reaches its midpoint. For `Cc1ccc2cc1C(=O)N[C@H](C)c1cc(cc3ccccc13)C=CCCCCC2` [Example 6], the IC50 in assay [1] (setting [4]) is greater than 10000 nM.

As a reminder, the EC50 is the concentration needed to bring the measured effect to its halfway point. Regarding `COC(=O)/C=C/C(=O)NNC(=O)CCc1ccc2cc1C(=O)N[C@H](C)c1cc(cc3ccccc13)CCCCCCS(=O)(=O)C2` [Example 23], the EC50 in assay [2] (setting [5]) lay within 10 to 50 µM. The IC50 in assay [1] (setting [4]) is less than 100 nM. On to `COC(=O)/C=C/C(=O)NNC(=O)CCc1ccc2cc1C(=O)N[C@H](C)c1cc(cc3ccccc13)CCCCCCN(C)C2=O` [Example 30], for which the EC50 is less than 1000 nM in assay [3] and 1 to 10 µM in assay [2] (setting [5]). Besides, the IC50 in assay [1] (setting [4]) was less than 100 nM.

With `COC(=O)/C=C/C(=O)NNC(=O)CCc1ccc2cc1C(=O)N[C@H](C)c1cc(cc3c1CCCC3)CCCCCNS2(=O)=O` [Example 36], the IC50 in assay [1] (setting [4]) lay within 100 to 1000 nM. The compound `Cc1ccc2cc1C(=O)N[C@H](C)c1cc(cc3ccccc13)C=CCCCN(C(=O)OCc1ccccc1)C2` [Example 1] had an IC50 in assay [1] greater than 10000 nM. With `Cc1ccc2cc1C(=O)N[C@H](C)c1cc(cc3ccccc13)N1CCN(CCCC(=O)NC2)CC1` [Example 15], the IC50 in assay [1] (setting [4]) lay within 1000 to 10000 nM. On to `COC(=O)/C=C/C(=O)N(NC(=O)CCc1ccc2cc1C(=O)N[C@H](C)c1cc(cc3ccccc13)CCCCOCCNC2=O)C(=O)/C=C/C(=O)OC` [Example 38], for which, in assay [1] (setting [4]), the IC50 was less than 100 nM. The same measure, in the same setting: the same measure for `Cc1ccc2cc1C(=O)N[C@H](C)c1cc(cc3ccccc13)C(=O)N1CCN(CC1)C(=O)CC2` [Example 9]: greater than 10000 nM; for `COC(=O)/C=C/CNC(=O)C(=O)NCc1ccc2cc1C(=O)N[C@H](C)c1cc(cc3ccccc13)CCCCCNC2=O` [Example 42, methyl (R,E)-4-(2-(((2-methyl-4,6-dioxo-3,7-diaza-1(1,3)-naphthalena-5(1,3)-benzenacyclododecaphane-5^6-yl)methyl)amino)-2-oxoacetamido)but-2-enoate]: greater than 10000 nM. For `Cc1ccc2cc1C(=O)N[C@H](C)c1cc(cc3ccccc13)CCCCNC2` [Example 4], the IC50 in assay [1] (setting [4]) lay within 1000 to 10000 nM. Consider `COC(=O)/C=C/C(=O)NNC(=O)CCc1ccc2cc1C(=O)N[C@H](C)c1cccc(c1)C=CCCCCC2` [Example 22], for which, in assay [1] (setting [4]), the IC50 was 1000 to 10000 nM. Regarding `COC(=O)/C=C/C(=O)NNC(=O)CCc1ccc2cc1C(=O)N[C@H](C)c1cc(cc3ccccc13)CCCCCS(=O)(=O)C2` [Example 24], in assay [2] (setting [5]), the EC50 lay in the range of 10 to 50 µM. The IC50 in assay [1] (setting [4]) was less than 100 nM. For the compound `Cc1ccc2cc1C(=O)N[C@H](C)c1cc(cc3ccccc13)CCCCCNC2` [Example 2], the EC50 in assay [3] is 1000 to 10000 nM; in assay [2] (setting [5]), 1 to 10 µM. Moreover, in assay [1] (setting [4]), the IC50 is 100 to 1000 nM. As to `COC(=O)/C=C/C(=O)NNC(=O)CCc1ccc2cc1C(=O)N[C@H](C)c1cc(cc3ccccc13)C=CCCCNC2=O` [Example 28], the IC50 in assay [1] (setting [4]) was less than 100 nM. `COC(=O)/C=C/C(=O)NNC(=O)CCc1ccc2cc1C(=O)N[C@H](C)c1cc(cc3ccccc13)CCCCCCC2` [Example 18]: the figures for the EC50 in assay [3] and in assay [2] (setting [5]) were 1000 to 10000 nM and 10 to 50 µM, respectively. The IC50 in assay [1] (setting [4]) was in the range of 100 to 1000 nM. With `COC(=O)/C=C/C(=O)NNC(=O)CCc1ccc2cc1C(=O)N[C@H](C)c1cc(cc3ccccc13)CCCCCCNC2=O` [Example 26], in assay [1] (setting [4]), the IC50 is less than 100 nM. For `COC(=O)/C=C/C(=O)NNC(=O)CCc1ccc2cc1C(=O)N[C@H](C)c1cc(cc3ccccc13)CCCCCNC2=O` [Example 25], the EC50 is less than 1000 nM in assay [3] and less than 1 µM in assay [2] (setting [6]). With `C[C@H]1NC(=O)c2cc(ccc2CCC(=O)NNC(=O)OC(C)(C)C)CCCCCC=Cc2cc1c1ccccc1c2` [Example 21], the IC50 in assay [1] (setting [4]) is greater than 10000 nM. Regarding `C[C@H]1NC(=O)c2cc(ccc2CCC(=O)NN)CCCCCC=Cc2cc1c1ccccc1c2` [Example 20], in assay [1] (setting [4]), the IC50 is greater than 10000 nM. For `Cc1ccc2cc1C(=O)N[C@H](C)c1cc(cc3ccccc13)-c1cn(nn1)CCCC(=O)NC2` [Example 13], the IC50 in assay [1] (setting [4]) is greater than 10000 nM. As for `Cc1ccc2cc1C(=O)N[C@H](C)c1c(ccc3ccccc13)CCCCNC2` [Example 7], the IC50 in assay [1] (setting [4]) was in the range of 1000 to 10000 nM.

Consider `COC(=O)/C=C/C(=O)NNC(=O)CCc1ccc2cc1C(=O)N[C@H](C)c1cc(cc3ccccc13)CCCCOC(=O)N2` [Example 40], for which the EC50 is less than 1000 nM in assay [3] and 1 to 10 µM in assay [2] (setting [5]). The IC50 in assay [1] (setting [4]) was less than 100 nM. Turning to `Cc1ccc2cc1C(=O)N[C@H](C)c1cc(cc3ccccc13)C(=O)N(C)CCCC(=O)NC2` [Example 12], the IC50 in assay [1] (setting [4]) is greater than 10000 nM.

Take `Cc1ccc2cc1C(=O)N[C@H](C)c1cc(cc3ccccc13)N1CCN(CCCCC(=O)NC2)CC1` [Example 16]: the half-inhibitory concentration (IC50) in assay [1] (setting [4]) is greater than 10000 nM. For `COC(=O)/C=C/C(=O)NNC(=O)CCc1ccc2cc1C(=O)N[C@H](C)c1cc(cc3ccccc13)CCCCCNS2(=O)=O` [Example 35], the IC50 in assay [1] (setting [4]) is less than 100 nM. Still for that read-out and setting: the same measure for `COC(=O)/C=C/C(=O)NNC(=O)CCc1ccc2cc1C(=O)N[C@H](C)c1cc(cc3ccccc13)C=CCCCCNC2=O` [Example 27]: less than 100 nM.

Regarding `Cc1ccc2cc1C(=O)N[C@H](C)c1cc(cc3ccccc13)-c1cn(nn1)CCCCNC2` [Example 17], the EC50 in assay [2] (setting [6]) is 10 to 50 µM. In assay [1], the IC50 was in the range of 100 to 1000 nM. In the case of `COC(=O)/C=C/C(=O)NNC(=O)CCc1ccc2cc1C(=O)N[C@H](C)c1cccc3ccc(cc13)CCCCNC2=O` [Example 34], the IC50 in assay [1] (setting [4]) was 100 to 1000 nM.

Turning to `COC(=O)/C=C/C(=O)NNC(=O)CCc1ccc2cc1C(=O)N[C@H](C)c1cc(cc3ccccc13)C=CCCCN(C)C2=O` [Example 32], the IC50 in assay [1] (setting [4]) was less than 100 nM. In the case of `COC(=O)/C=C/C(=O)NNC(=O)CCc1ccc2cc1C(=O)N[C@H](C)c1cc(cc3ccccc13)CCCCCC(=O)N2` [Example 39], the EC50 was less than 1000 nM in assay [3] and 1 to 10 µM in assay [2] (setting [5]). Moreover, the IC50 in assay [1] (setting [4]) is less than 100 nM. Consider `Cc1ccc2cc1C(=O)N[C@H](C)c1cc(cc3ccccc13)-c1cn(nn1)CCCCC(=O)NC2` [Example 14], for which the EC50 in assay [2] (setting [5]) is greater than 50 µM. For the same compound, the IC50 in assay [1] (setting [4]) was in the range of 100 to 1000 nM. As to `C[C@H]1NC(=O)c2cc(ccc2C#N)C(=O)NCCCCCc2cc1c1ccccc1c2` [Example 41], the IC50 in assay [1] (setting [4]) lay within 1000 to 10000 nM.

Consider `COC(=O)/C=C/C(=O)NNC(=O)CCc1ccc2cc1C(=O)N[C@H](C)c1cc(cc3ccccc13)CCCCCN(C)C2=O` [Example 31], for which the IC50 in assay [1] (setting [4]) is less than 100 nM. The same measure, in the same setting: the same measure for `Cc1ccc2cc1C(=O)N[C@H](C)c1cc(cc3ccccc13)C=CCCN(C(=O)OCc1ccccc1)C2` [Example 3]: greater than 10000 nM; for `COC(=O)/C=C/C(=O)NNC(=O)CCc1ccc2cc1C(=O)N[C@H](C)c1cc(cc3ccccc13)C=CCCCCN(C)C2=O` [Example 29]: less than 100 nM. With `Cc1ccc2cc1C(=O)N[C@H](C)c1cc(cc3ccccc13)C(=O)N(C)CCCN(C)C(=O)CC2` [Example 11], in assay [1] (setting [4]), the IC50 is greater than 10000 nM. As to `Cc1ccc2cc1C(=O)N[C@H](C)c1cc(cc3ccccc13)CCCCCCNC2` [Example 5], the EC50 in assay [2] (setting [5]) was in the range of 1 to 10 µM. In assay [1] (setting [4]), the concentration for half-maximal inhibition (IC50) is 100 to 1000 nM. For the compound `COC(=O)/C=C/C(=O)NNC(=O)CCc1ccc2cc1C(=O)N[C@H](C)c1cc(cc3ccccc13)C=CCCCCC2` [Example 19], the EC50 in assay [2] (setting [5]) is 1 to 10 µM. The IC50 in assay [1] (setting [4]) was less than 100 nM. As for `COC(=O)/C=C/C(=O)NNC(=O)CCc1ccc2cc1C(=O)N[C@H](C)c1cc(cc3ccccc13)CCCCOCCNC2=O` [Example 37], the EC50 was less than 1000 nM in assay [3] and less than 1 µM in assay [2] (setting [5]). Moreover, the IC50 in assay [1] (setting [4]) is less than 100 nM.

Regarding `Cc1ccc2cc1C(=O)N[C@H](C)c1c(ccc3ccccc13)CCCCCNC2` [Example 8], in assay [1] (setting [4]), the half-inhibitory concentration (IC50) was greater than 10000 nM.
